Laboratory results published in US7098372B1, “Pharmaceutical compositions and methods of using secreted frizzled related protein” (Wyeth, priority 1999, dated 2006).

Tests used:
hOB SFRP mRNA [1] = assay: hOB SFRP mRNA levels after treatment with various agents (method not given); assay type: cell-based, human; conditions: various hOB cell lines
hOB SFRP mRNA [2] = assay: Northern blot analysis of hOB SFRP mRNA expression; assay type: cell-based, human
From the text: The hOB SFRP gene fragment was identified using RADE (rapid analysis of differential expression) technology as described by Shiue 1997 Drug Develop. Res. 41: 142–159, the whole of which is incorporated herein. Three hOB cell lines (hOB-03-C5, hOB-03-CE6 and hOB-01-C1), representing three distinct stages of differentiation (proliferative, mature and preosteocytic, respectively) were used to isolate and identify SFRP. The hOB cell lines were established and cultured as previously described (Bodine et al. 1996 J. Bone Miner. Res. 11: 806–819; Bodine et al. 1996 Endocrinology 137: 4592–4604; Bodine et al. 1997 J. Cell. Biochem. 65: 368–387). […] However, in contrast to osteosarcoma cells (Stein and Lian 1993 Endocrine Rev. 14: 424–442), the hOB cell lines were faithful to the proliferation/differentiation relationship at the nonpermissive temperature (>37° C.) when the T-antigen mutant is inactivated. The cell lines were seeded into 150 mm dishes at ˜40,000 cells/cm^2 with growth medium [D-MEM/F-12 containing 10% (v/v) heat-inactivated fetal bovine serum (FBS), 1% (v/v) Penicillin-Streptomycin and 2 mM GlutaMAX-1] and incubated overnight at 34° C. The next day, the medium was removed, the cells were rinsed with phosphate-buffered saline (PBS), 20 ml of serum-free medium was added to the dishes [phenol red-free D-MEM/F-12 (Gibco/BRL) containing 0.25% (w/v) bovine serum albumin (BSA, Pentex crystallized, Bayer), 1% (v/v) Penicillin-Streptomycin, 2 mM GlutaMAX-1, […] ascorbate-2-phosphate (Wako), and 10 nM menadione sodium bisulfite (vitamin K3)], and the dishes were incubated at 39° C. for 24 hr. The next day, the medium was removed and the cells were treated at 39° C. for an additional 24 hr with 20 ml of fresh serum-free medium containing either vehicle (Control), 8 nM human parathyroid hormone 1–34 (PTH), 100 nM prostaglandin E2 (PGE2) or 0.1 nM human transforming growth factor-β1 (TGF-β1). PTH, PGE2 and TGF-β1 are known osteogenic agents (Whitfield and Morley 1995 Trends Pharmaceut. Sci. 16:382–386; Jee and Ma 1997 Bone 21:297–304; Centrella et al. 1994 Endocrine Rev. 15:27–39). After the treatment period, the dishes were rinsed with PBS and total cellular RNA was isolated from the nontreated and treated cells using TRIzol according to the manufacturers instructions (GibcoBRL). RADE was then performed with the isolated RNA samples as above; the regulated gene fragments were identified, cloned and sequenced. These experiments identified a total of 82 differentially expressed genes. A BLAST (basic local alignment search tool) search of the public data bases was performed on the RADE-obtained gene fragments; one of the gene fragments was highly homologous to mouse SFRP-1. This gene fragment was identified during RADE using the following primer pair: 5′-[…]-3′ (HT11A)3′ end (reverse primer) and 5′-[…]-3′ (H-AP1) 5′ end (forward primer), which sequences are SEQ ID NO 11 and SEQ ID NO 12, respectively. The expression and regulation of the gene fragment having homology to mouse cDNA SFRP-1 was confirmed by Northern blot analysis.
In order to confirm the regulation of hOB SFRP gene expression by different osteogenic agents (i.e., the DNA fragment identified in Example 1, above), the hOB cell lines were treated with PTH, PGE2, and TGF-β1; RNA was then isolated for Northern hybridizations. The experiments were performed as follows. The hOB cell lines were seeded into 150 mm dishes and treated as described in Example 1, except that polyA+ RNA was isolated from total cellular RNA using Oligotex mRNA maxi kits as described by the manufacturer (Qiagen). Northern blot analysis was performed using either the excised RADE hOB SFRP gene fragment, the cloned hOB SFRP gene fragment or the cloned full-length hOB SFRP cDNA as a ^32P-labeled probe (as described in Bodine et al. 1996 J. Bone Miner. Res. 11: 806–819, which is incorporated herein). Each of these probes detected a 4.4–4.6 kb message in the hOB cells. […]

PTH-1 receptor = target: T1, PTH-1 receptor (Homo sapiens, UniProt Q03431); assay: Intracellular cAMP assay in hOB-01-C1-PS-09 cells; assay type: cell-based; conditions: preincubation at 34° C.
T1 construct: the hOB-01-C1-PS-09 cell line was selected for further characterization based on its high-level of PTH-1 receptor mRNA expression; endogenous in cells; host or cells: hOB-01-C1-PS-09 cells (ATCC PTA-785)
T1 sequence (Q03431 27-593): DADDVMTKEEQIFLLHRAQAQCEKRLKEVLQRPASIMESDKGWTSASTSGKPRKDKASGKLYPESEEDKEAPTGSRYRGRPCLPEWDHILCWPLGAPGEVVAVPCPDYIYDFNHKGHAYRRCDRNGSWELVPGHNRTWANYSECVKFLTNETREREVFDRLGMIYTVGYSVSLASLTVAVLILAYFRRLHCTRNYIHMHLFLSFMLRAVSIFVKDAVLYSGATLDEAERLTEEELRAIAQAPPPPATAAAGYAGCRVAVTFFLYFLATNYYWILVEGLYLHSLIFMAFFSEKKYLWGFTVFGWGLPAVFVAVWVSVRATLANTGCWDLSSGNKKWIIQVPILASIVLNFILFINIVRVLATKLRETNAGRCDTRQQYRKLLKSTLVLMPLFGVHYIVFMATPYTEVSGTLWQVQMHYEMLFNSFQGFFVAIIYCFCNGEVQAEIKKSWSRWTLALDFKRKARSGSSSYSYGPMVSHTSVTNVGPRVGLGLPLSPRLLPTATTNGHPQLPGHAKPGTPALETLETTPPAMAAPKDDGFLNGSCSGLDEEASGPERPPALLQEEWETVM
Method: As mentioned above, the hOB-01-C1-PS-09 cell line was selected for further characterization based on its high-level of PTH-1 receptor mRNA expression. […] Consistent with this enhanced PTH-1 receptor expression, […] increasing concentrations of human PTH 1–34 (hPTH 1–34) for 10 min at 37° C. generates a dose-dependent 5- to 6-fold increase in intracellular cyclic-adenosine monophosphate (cAMP) levels (FIG. 24). […] Thus, both PTH-1 receptor expression and responsiveness are enhanced following inactivation of the tsA-209 T-antigen. One potential utility for this cAMP assay would be the ability to characterize the activities of PTH-analogs or -mimetics in an important target cell under conditions where levels of PTH-1 receptor expression are dramatically altered.

Wnt signaling = assay: TCF-luciferase reporter gene assay of Wnt signaling; assay type: cell-based, human; conditions: transfected cDNA, hOB-01-C1-PS-09 or hOB-02-C1-PS-02 cells
Method: SARP-2 or human Frzb-1 expression plasmids downregulates Wnt signaling (when compared to the pcDNA3.1 empty vector control) in the hOB cells as measured by the TCF-luciferase reporter gene assay. This assay is an authentic measurement of Wnt signaling and β-catenin nuclear activity.
In order to determine if the up-regulation of SFRP-1/FRP-1/SARP-2 gene expression results in an antagonism of the Wnt signaling pathway, hOB-03-CE6 cells were treated with PGE2 and the resulting cells probed with β-catenin monoclonal antibody. Overexpression of Wnt proteins in cells up-regulates a signaling protein known as β-catenin (reviewed in Moon et al. 1997 Cell 88: 725–728; Barth et al. 1997 Curr. Opin. Cell Biol. 9: 683–690; and Nusse 1997 Cell 89: 321–323). […] Therefore, hOB-03-CE6 cells were plated and treated with PGE2 as described in Example 1, except that total cellular protein was extracted and a Western blot analysis for β-catenin was performed using a monoclonal antibody to the protein (Transduction Laboratories) as previously described (Bodine et al. 1996 Endocrinology 137: 4592–4604; Melkonyan et al. 1997 Proc. Natl. Acad. Sci. USA 94: 13636–13641). […] Both human and rat SFRP-1/FRP-1/SARP-2, as well as human Frzb-1/FrzB/Fritz, suppressed TCF-luciferase activity in the hOB cells.

hOB-01-C1-PS-09 cells = assay: Cell viability of hOB-01-C1-PS-09 cells stably transfected with hOB SFRP cDNA; assay type: cell-based, human; conditions: stably transfected hOB-01-C1-PS-09 cells
From the text: For these experiments, the cells were stably transfected with either an hOB SFRP cDNA (i.e., SFRP-1/FRP-1/SARP-2) mammalian expression plasmid or the empty vector (i.e., pcDNA3.1). The results are presented as the % of the day 0 control cells.
For these experiments, the cells were stably transfected with either an hOB SFRP cDNA (i.e., SFRP-1/FRP-1/SARP-2) mammalian expression plasmid or the empty vector (i.e., pcDNA3.1, which is obtained from Invitrogen of Carlsbad, Calif.). Standard cloning technigues were used (See Ausubel et al. 1997 Short Protocols in M<olecular Biology, 3rd edition, Wiley {New York}). The results are presented as the % of the day 0 control cells.

## human parathyroid hormone 1–34 [PTH]
hOB SFRP mRNA [1]
  effect on hOB SFRP message expression: suppresses
hOB SFRP mRNA [2]; SaOS-2 human osteosarcoma cells, 24 hr, 37° C.
  regulation of SFRP mRNA: not regulated
hOB SFRP mRNA [2]; hOB-01-C1 cells, 8 nM
  suppression of basal hOB SFRP expression: 35%
PTH-1 receptor
  increase in cAMP concentrations: does not result in a subsequent increase

B1: SFRP-1/FRP-1/SARP-2: human osteoblast secreted frizzled related protein, SEQ ID NO 2, expressed from transfected cDNA in pcDNA3.1 (protein, listed as Homo sapiens)
chain: MGIGRSEGGRRGAALGVLLALGAALLAVGSASEYDYVSFQSDIGPYQSGRFYTKPPQCVDIPADLRLCHNVGYKKMVLPNLLEHETMAEVKQQASSWVPLLNKNCHAGTQVFLCSLFAPVCLDRPIYPCRWLCEAVRDSCEPVMQFFGFYWPEMLKCDKFPEGDVCIAMTPPNATEASKPQGTTVCPPCDNELKSEAIIEHLCASEFALRMKIKEVKKENGDKKIVPKKKKPLKLGPIKKKDLKKLVLYLKNGADCPCHQLDNLSHHFLIMGRKVKSQYLLTAIHKWDKKNKEFKNFMKKMKNHECPTFQSVFK
Wnt signaling
  TCF-luciferase activity: suppressed
hOB-01-C1-PS-09 cells
  rate of cell death on overexpression versus empty vector: accelerates the rate of cell death
